“And” between values parts separate entries of the source, which are not always exact repeats. Equal entries are not always repeated.
Tests used:
[1] = test system: Hz formation in ABS P. falciparum 3D7 parasites; experiment: Cellular heme fractionation assay; type: cell-based, Plasmodium falciparum
Procedure: A heme fractionation assay was used to measure the inhibition of Hz formation in cultured ABS P. falciparum 3D7 parasites as previously described. […] Late trophozoites were harvested after 32 hours of incubation by lysing RBCs with 0.05% saponin followed by multiple washes with 1 × PBS (pH 7.5) to remove any residual traces of hemoglobin. The parasite pellet was resuspended in PBS and the total number of trophozoites isolated was quantified using flow cytometry. Contents of the trophozoite pellet were released by hypotonic lysis and sonication. After centrifugation, treatments with HEPES buffer (pH 7.4), sodium dodecyl sulfate, pyridine, and NaOH, allowed us to separate the fractions corresponding to the different heme species of interest. A microplate reader was employed to measure the UV-visible spectrum of each heme fraction as a Fe(III)heme-pyridine complex. Fractions of undigested hemoglobin, “free” heme, and Hz were quantified using a heme standard curve based on the mass of each heme-Fe species per mature trophozoite (fg/cell), obtained by dividing the total amount of each heme species by the corresponding number of parasites in that fraction as determined by flow cytometry. Statistical comparisons and analyses for trends employed Students’ t-tests (GraphPad Prism version 9).

[2] = test system: P. berghei ookinete formation; experiment: In vitro inhibition of ookinete formation (nLuc conversion assay), 24 h; type: cell-based, Plasmodium berghei; conditions: for % Inhibition of ookinete conversion: single assays
Procedure: To measure the inhibition of gamete conversion into ookinetes, a mutant luciferase-expressing P. berghei line (nLuc) was intraperitoneally injected into BALB/c mice. After 3–4 days, gametocyte-carrying blood samples were collected. In vitro compound testing was carried out by exposing 4 μL of infected blood mixed with 80 μL of culture medium (RPMI-1640 supplemented with 25 mM HEPES, 50 mg/L hypoxanthine, and 1% penicillin/streptomycin/neomycin at pH 8.3) to a range of drug concentrations for 24 hours at 21°C. Following the incubation, 20 μL of nLuc substrate (Nano-Glo Luciferase Assay System, Promega) was added to each well, and luminescence was measured in a luminometer. Increased light emission correlated with nLuc production and subsequent luciferase activity due to in vitro fertilization and ookinete conversion, as luciferase expression in this parasite line is regulated by the CTRP promoter that is ookinete-specific. Conversion inhibition was calculated as the percentage of luciferase activity of drug-exposed wells relative to untreated ones, from which IC50 values were interpolated.

[3] = 0.5x IC50, 32 h, single replicates
[4] = 0.5–3.0 × IC50 vs untreated control
[5] = 1x IC50, 32 h, single replicates
[6] = 2x IC50, 32 h, single replicates
[7] = 2.5x IC50, 32 h, single replicates
[8] = 3x IC50, 32 h, single replicates

COc1cc2nccc(Nc3cccc(Oc4ccccc4)c3)c2cc1OC [LDT-623]
%Hb ([1]; 0.5x IC50, 32 h, Mean): 6.49%
%Heme ([1]; 0.5x IC50, 32 h, Mean): 9.94%
%Hemozoin ([1]; 0.5x IC50, 32 h, Mean): 83.57%
Hb Fe (fg/troph) ([1]; 0.5x IC50, 32 h, Mean): 3.40 fg/troph
Heme Fe (fg/troph) ([1]; 0.5x IC50, 32 h, Mean): 5.28 fg/troph
Hemozoin Fe (fg/troph) ([1]; 0.5x IC50, 32 h, Mean): 44.40 fg/troph
Total Fe (fg/troph) ([1]; 0.5x IC50, 32 h, Mean): 54.33 fg/troph
%Hb [1, 3]: 5.0225% and 6.9078% and 7.3751% and 6.6526%
%Heme [1, 3]: 10.3876% and 10.3966% and 9.0005% and 9.9788%
%Hemozoin [1, 3]: 84.5899% and 82.6957% and 83.6245% and 83.3686%
Hb Fe (fg/troph) [1, 3]: 2.7844 fg/troph and 3.6098 fg/troph and 3.8007 fg/troph and 3.8647 fg/troph
Heme Fe (fg/troph) [1, 3]: 5.7588 fg/troph and 5.4329 fg/troph and 4.6383 fg/troph and 5.7970 fg/troph
Hemozoin Fe (fg/troph) [1, 3]: 46.8963 fg/troph and 43.2142 fg/troph and 43.0950 fg/troph and 48.4315 fg/troph
Total Fe (fg/troph) [1, 3]: 55.44 fg/troph and 52.26 fg/troph and 51.53 fg/troph and 58.09 fg/troph
effect on Hz levels [1, 4]: significant concentration-dependent decreases in the levels of Hz
effect on undigested Hb [1, 4]: augmented percentage of undigested Hb was observed starting at 0.5 × IC50
effect on “free” heme [1, 4]: statistically significant increase in “free” heme in a concentration-dependent manner
%Hb ([1]; 1x IC50, 32 h, Mean): 7.02%
%Heme ([1]; 1x IC50, 32 h, Mean): 10.55%
%Hemozoin ([1]; 1x IC50, 32 h, Mean): 82.43%
Hb Fe (fg/troph) ([1]; 1x IC50, 32 h, Mean): 3.49 fg/troph
Heme Fe (fg/troph) ([1]; 1x IC50, 32 h, Mean): 5.57 fg/troph
Hemozoin Fe (fg/troph) ([1]; 1x IC50, 32 h, Mean): 44.22 fg/troph
Total Fe (fg/troph) ([1]; 1x IC50, 32 h, Mean): 54.30 fg/troph
%Hb [1, 5]: 4.1032% and 6.0183% and 9.3168% and 8.6327%
%Heme [1, 5]: 11.3186% and 11.3158% and 8.7646% and 10.7959%
%Hemozoin [1, 5]: 84.5783% and 82.6659% and 81.9186% and 80.5714%
Hb Fe (fg/troph) [1, 5]: 2.0348 fg/troph and 3.3626 fg/troph and 5.0638 fg/troph and 4.9539 fg/troph
Heme Fe (fg/troph) [1, 5]: 5.6130 fg/troph and 6.3225 fg/troph and 4.7637 fg/troph and 6.1953 fg/troph
Hemozoin Fe (fg/troph) [1, 5]: 41.9435 fg/troph and 46.1884 fg/troph and 44.5239 fg/troph and 46.2360 fg/troph
Total Fe (fg/troph) [1, 5]: 49.59 fg/troph and 55.87 fg/troph and 54.35 fg/troph and 57.39 fg/troph
%Hb ([1]; 2x IC50, 32 h, Mean): 5.86%
%Heme ([1]; 2x IC50, 32 h, Mean): 12.64%
%Hemozoin ([1]; 2x IC50, 32 h, Mean): 81.50%
Hb Fe (fg/troph) ([1]; 2x IC50, 32 h, Mean): 3.50 fg/troph
Heme Fe (fg/troph) ([1]; 2x IC50, 32 h, Mean): 6.66 fg/troph
Hemozoin Fe (fg/troph) ([1]; 2x IC50, 32 h, Mean): 43.79 fg/troph
Total Fe (fg/troph) ([1]; 2x IC50, 32 h, Mean): 54.83 fg/troph
%Hb [1, 6]: 4.9454% and 8.0340% and 6.4023% and 4.0696%
%Heme [1, 6]: 13.6029% and 11.9660% and 11.4824% and 13.5021%
%Hemozoin [1, 6]: 81.4516% and 80.0000% and 82.1153% and 82.4284%
Hb Fe (fg/troph) [1, 6]: 2.6441 fg/troph and 4.5716 fg/troph and 3.2970 fg/troph and 2.3379 fg/troph
Heme Fe (fg/troph) [1, 6]: 7.2727 fg/troph and 6.8090 fg/troph and 5.9132 fg/troph and 7.7566 fg/troph
Hemozoin Fe (fg/troph) [1, 6]: 43.5476 fg/troph and 45.5226 fg/troph and 42.2872 fg/troph and 47.3530 fg/troph
Total Fe (fg/troph) [1, 6]: 53.46 fg/troph and 56.90 fg/troph and 51.50 fg/troph and 57.45 fg/troph
%Hb ([1]; 2.5x IC50, 32 h, Mean): 6.89%
%Heme ([1]; 2.5x IC50, 32 h, Mean): 13.61%
%Hemozoin ([1]; 2.5x IC50, 32 h, Mean): 79.50%
Hb Fe (fg/troph) ([1]; 2.5x IC50, 32 h, Mean): 3.48 fg/troph
Heme Fe (fg/troph) ([1]; 2.5x IC50, 32 h, Mean): 7.40 fg/troph
Hemozoin Fe (fg/troph) ([1]; 2.5x IC50, 32 h, Mean): 43.37 fg/troph
Total Fe (fg/troph) ([1]; 2.5x IC50, 32 h, Mean): 54.23 fg/troph
%Hb [1, 7]: 6.2660% and 6.4635% and 6.5388% and 8.2899%
%Heme [1, 7]: 15.0745% and 13.6837% and 12.1024% and 13.5701%
%Hemozoin [1, 7]: 78.6596% and 79.8529% and 81.3587% and 78.1400%
Hb Fe (fg/troph) [1, 7]: 3.4040 fg/troph and 3.6534 fg/troph and 3.3950 fg/troph and 4.4889 fg/troph
Heme Fe (fg/troph) [1, 7]: 8.1894 fg/troph and 7.7345 fg/troph and 6.2837 fg/troph and 7.3481 fg/troph
Hemozoin Fe (fg/troph) [1, 7]: 42.7326 fg/troph and 45.1360 fg/troph and 42.2421 fg/troph and 42.3122 fg/troph
Total Fe (fg/troph) [1, 7]: 54.33 fg/troph and 56.52 fg/troph and 51.92 fg/troph and 54.15 fg/troph
%Hb ([1]; 3x IC50, 32 h, Mean): 8.06%
%Heme ([1]; 3x IC50, 32 h, Mean): 18.59%
%Hemozoin ([1]; 3x IC50, 32 h, Mean): 73.35%
Hb Fe (fg/troph) ([1]; 3x IC50, 32 h, Mean): 4.13 fg/troph
Heme Fe (fg/troph) ([1]; 3x IC50, 32 h, Mean): 9.47 fg/troph
Hemozoin Fe (fg/troph) ([1]; 3x IC50, 32 h, Mean): 38.59 fg/troph
Total Fe (fg/troph) ([1]; 3x IC50, 32 h, Mean): 52.57 fg/troph
%Hb [1, 8]: 7.5148% and 8.7626% and 7.4537% and 8.4952%
%Heme [1, 8]: 20.9692% and 17.6208% and 15.9272% and 19.8532%
%Hemozoin [1, 8]: 71.5161% and 73.6166% and 76.6190% and 71.6515%
Hb Fe (fg/troph) [1, 8]: 3.8296 fg/troph and 4.6352 fg/troph and 3.9291 fg/troph and 4.5643 fg/troph
Heme Fe (fg/troph) [1, 8]: 10.6861 fg/troph and 9.3209 fg/troph and 8.3957 fg/troph and 10.6667 fg/troph
Hemozoin Fe (fg/troph) [1, 8]: 36.4452 fg/troph and 38.9409 fg/troph and 40.3879 fg/troph and 38.4969 fg/troph
Total Fe (fg/troph) [1, 8]: 50.96 fg/troph and 52.90 fg/troph and 52.71 fg/troph and 53.73 fg/troph
% Inhibition of ookinete conversion ([2]; Log conc. (uM) 0.39794): 72.78% and 76.99% and 75.53% and 88.24% and 87.02% and 67.23% and 81.09%
% Inhibition of ookinete conversion ([2]; Log conc. (uM) 0.69897): 88.00% and 95.67% and 86.70% and 98.41% and 98.02% and 73.84% and 94.25%
% Inhibition of ookinete conversion ([2]; Log conc. (uM) 1): 99.93% and 99.92% and 99.83% and 99.70% and 99.35% and 98.41% and 99.32%
% Inhibition of ookinete conversion ([2]; Log conc. (uM) -1.70927): 0.00%
IC50 ([2]; Plasmodium berghei, read-out: IC50 inhibition of ookinete formation, mean, N = 7): 1500 nM
